Test results reported in PubChem BioAssay (NCI).
Several values for one entry are separate records, joined by “and”; a condition that tells them apart may be missing. Equal entries are not always repeated.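 All cell lines were grown in 96-well plates and treated with compound for 48 hours. GI50: concentration for 50% inhibition of growth. TGI is the concentration that stops growth completely.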

Experiments:
Experiment in all cases: growth of human tumour cells (NCI), 48 h
[1] = test system: SF-539 CNS
[2] = test system: OVCAR-5 ovarian
[3] = test system: SK-MEL-5 melanoma
[4] = test system: UACC-62 melanoma
[5] = test system: TK-10 renal
[6] = test system: HCT-15 colon
[7] = test system: M14 melanoma
[8] = test system: 786-0 renal
[9] = test system: T-47D breast
[10] = test system: SK-MEL-2 melanoma

Row | SMILES | GI50 [1] [µM] | TGI [1] | GI50 [2] [µM] | TGI [2] [µM] | GI50 [3] [µM] | TGI [3] | GI50 [4] [µM] | TGI [4] | GI50 [5] [µM] | TGI [5] | GI50 [6] [µM] | TGI [6] | GI50 [7] [µM] | TGI [7] | GI50 [8] [µM] | TGI [8] | GI50 [9] [µM] | TGI [9] [µM] | GI50 [10] [µM] | TGI [10]
1 | O=C1C[C@@H]2OCC=C3C[N+]4([O-])CC[C@]56c7ccccc7N1[C@H]5[C@H]2[C@H]3C[C@@H]64 (stereo partly specified) | > 100 | > 100 µM | > 100 | > 100 | > 100 | > 100 µM | > 100 | > 100 µM | > 100 | > 100 µM | > 100 | > 100 µM | > 100 | > 100 µM | > 100 | > 100 µM | > 100 | > 100 | – | –
2 | N#C[Se]CCN1C(=O)c2ccccc2C1=O | 1.92 | 6.85 µM | 2.24 | 9.38 | – | – | 1.52 | 3.74 µM | 2.13 | 6.3 µM | 3.58 | 14.7 µM | 1.21 | 3.8 µM | 2.1 | 5.09 µM | 3.45 | 20.2 | 3.71 | 19.1 µM
3 | NS(=O)(=O)c1cc2c(cc1Cl)NCNS2(=O)=O | – | > 100 µM | – | > 100 | – | > 100 µM | – | – | – | > 100 µM | – | > 100 µM | – | > 100 µM | – | > 100 µM | – | > 100 | – | > 100 µM
4 | O=C(O)c1cn(C2CC2)c2cc(N3CCN(C(=O)N(c4ccccc4)c4nc(-c5ccccc5)cs4)CC3)c(F)cc2c1=O | – | – | – | – | 0.717 | > 100 µM | – | – | 1.09 | 32.6 µM | 0.308 | > 100 µM | 0.437 | > 100 µM | 0.417 | > 100 µM | 2.3 | > 100 | 0.554 | 2.92 µM
5 | N#CC1=C(N)Oc2c(ccc3ccccc23)C1c1cc2ccccc2n2nnnc12 (stereo unspecified) | – | – | 2.76 | > 100 | 0.611 | > 100 µM | 0.451 | > 100 µM | 4.8 | > 100 µM | 0.524 | > 100 µM | 0.948 | > 100 µM | 1.28 | > 100 µM | 1.83 | > 100 | 0.616 | 6.84 µM
6 | CN(C)c1ccc(/C=N/N=C(\C#N)[S][Sn]([Cl])([c]2ccccc2)[c]2ccccc2)cc1 | 1.7 | 3.3 µM | 1.59 | 3.24 | 1.66 | 3.37 µM | 1.41 | 2.87 µM | 1.46 | 2.8 µM | 1.26 | 2.73 µM | 1.72 | 3.38 µM | 1.48 | 2.83 µM | – | – | 1.74 | 3.43 µM
7 | COC1=CC(=O)C(O)=C(CC2(C)C(C)CCC3(C)C2CCCC3(C)C)C1=O (stereo unspecified) | – | 9.49 µM | – | 21.9 | – | 12.2 µM | – | 5.96 µM | – | 37.2 µM | – | 14.8 µM | – | 7.65 µM | – | 19.1 µM | – | – | – | 15.5 µM
8 | CC(C)(C)c1ccc(OCCOCCOc2ccc(C(C)(C)C)cc2S(N)(=O)=O)c(S(N)(=O)=O)c1 | – | > 100 µM | – | > 100 | – | > 100 µM | – | > 100 µM | – | > 100 µM | – | > 100 µM | – | > 100 µM | – | > 100 µM | – | – | – | > 100 µM
9 | FC(F)(F)c1cccc(CNC2CCN(CCc3ccccc3)CC2)c1 | 15.3 | 30.2 µM | 27.2 | > 100 | 12.3 | 24.7 µM | 13.9 | 30.7 µM | 30.7 | > 100 µM | 23.3 | > 100 µM | – | – | 14.6 | 32.6 µM | 20 | 52.9 | 23.5 | 47.2 µM
10 | CCOC(=O)C#Cc1c(C(=O)OCC)nnn1[C@@H]1O[C@H](COC)[C@@H](OC)[C@H]1OC | – | – | 16.2 | 32.7 | 14.3 | 27.4 µM | 2.19 | 5.41 µM | 1.86 | 3.45 µM | 2.56 | 6.66 µM | 3.27 | 10.8 µM | 13.3 | 26.7 µM | 2.47 | 7.39 | 16.6 | 32.9 µM
11 | CCN1CCN(CC(=O)Nc2nc3ccc(NCc4ccc(Br)cc4)cc3s2)CC1 | 1.75 | 3.24 µM | – | – | 1.68 | 3.08 µM | 1.9 | 3.52 µM | 2.24 | 4.55 µM | – | – | 1.72 | 3.63 µM | 1.85 | 3.5 µM | 1.75 | 4.55 | 1.95 | 3.63 µM
12 | CN(C)CCNC(=O)c1cccc2c1nc(-c1cccnc1)c1ccccc12 | – | 10.7 µM | – | 34 | – | 15.1 µM | – | 15.2 µM | – | 9.74 µM | – | 20.1 µM | – | 19.9 µM | – | 24.6 µM | – | – | – | 22.8 µM
13 | CC(C)(C)C1CCC(O)(c2ccccc2)CC1 (stereo unspecified) | – | > 100 µM and 45.4 µM | – | > 100 | – | > 100 µM and 28.5 µM | – | > 100 µM and 45.1 µM | – | > 100 µM and 53.1 µM | – | > 100 µM and 52.4 µM | – | > 100 µM and 42.8 µM | – | > 100 µM and 41.6 µM | – | – | – | > 100 µM and 28.4 µM
14 | CCC12C=C(C(=O)OC)N3c4ccccc4C4CCN(CCC1)C2C43 (stereo unspecified) | – | > 100 µM | – | > 100 | – | > 100 µM | – | > 100 µM | – | > 100 µM | – | > 100 µM | – | > 100 µM | – | 60.9 µM | – | – | – | > 100 µM
15 | N#CC1(CCCCl)CCCCC1 | – | > 100 µM | – | > 100 | – | > 100 µM | – | > 100 µM | – | > 100 µM | – | > 100 µM | – | > 100 µM | – | > 100 µM | – | – | – | > 100 µM
16 | O=[N+]([O-])c1ccc(/C=C/c2ccc(/C=C/c3ccc([N+](=O)[O-])cc3[N+](=O)[O-])cc2)c([N+](=O)[O-])c1 | – | > 100 µM | – | > 100 | – | > 100 µM | – | > 100 µM | – | > 100 µM | – | > 100 µM | – | > 100 µM | – | > 100 µM | – | – | – | > 100 µM
17 | CN(C)[C@@H]1C(=O)C(C(=O)NCc2nc3[nH]cnc(=S)c3[nH]2)=C(O)[C@@]2(O)C(=O)C3=C(O)c4c(O)cccc4[C@@](C)(O)[C@H]3C[C@@H]12 | 3.67 | > 100 µM | > 100 | > 100 | 24.8 | > 100 µM | 2.91 | > 100 µM | – | – | 5.66 | > 100 µM | 1.05 | > 100 µM | 3.78 | > 100 µM | 1.95 | > 100 | > 100 | > 100 µM
18 | C#CCCCCCC(=O)N[C@H]1C=C[C@@H]2/C=C(C)/C=C/[C@@H](C)[C@H]([C@H](C)[C@H](O)[C@@H](C)NC(C)=O)OC(=O)/C=C/C=C(C)\C=C\[C@]2(C)C1 | < 0.004 | 32.3 µM | 6.53 | > 40 | < 0.004 | 0.00803 µM | 0.023 | 9.04 µM | 0.0158 | > 40 µM | 0.00804 | > 40 µM | – | – | < 0.004 | > 40 µM | < 0.004 | 13.6 | 4.87 | > 40 µM
19 | Cc1ccccc1NC(=O)C1C(=O)N(c2ccccc2C)C(=O)/C1=N\NC(N)=O (stereo unspecified) | – | > 100 µM | – | > 100 | – | > 100 µM | – | > 100 µM | – | > 100 µM | – | > 100 µM | – | > 100 µM | – | > 100 µM | – | – | – | > 100 µM
20 | O=S(=O)(O)C(c1ccccc1)C(O)c1ccccc1 (stereo unspecified) | – | – | – | > 100 | – | > 100 µM | – | > 100 µM | – | > 100 µM | – | > 100 µM | – | > 100 µM | – | > 100 µM | – | > 100 | – | > 100 µM
21 | C=CCN(CC=C)Cc1c[nH]c2ccccc12 | – | – | 17 | 34.6 | 6 | 23.8 µM | 18.1 | 54.1 µM | 6.93 | 38.7 µM | 32.8 | > 100 µM | – | – | 4.33 | 14.7 µM | > 100 | > 100 | 15.3 | 38.3 µM
22 | O=C1Nc2ccc(Cl)cc2/C1=N/c1nc(-c2ccc(Cl)cc2)cs1 | – | – | 1.91 | 4.43 | – | – | 1.54 | 4.1 µM | 2.88 | 6.13 µM | – | – | 1.4 | 2.82 µM | 1.46 | 3.7 µM | 0.938 | 5.8 | 1.93 | 4.85 µM
23 | O=C1c2ccccc2C2(O)N(c3ccccc3)C(=S)N(c3ccccc3)C12O (stereo unspecified) | – | > 100 µM | – | > 100 | – | > 100 µM | – | > 100 µM | – | > 100 µM | – | > 100 µM | – | > 100 µM | – | > 100 µM | – | – | – | > 100 µM
24 | COc1cc(NC(=O)COc2ccccc2)c(C(N)=O)cc1OC | 0.563 | 3.59 µM | 15 | > 100 | 0.766 | > 100 µM | 2.52 | > 100 µM | 14.4 | > 100 µM | 0.804 | > 100 µM | 0.614 | > 100 µM | 7.32 | 38.8 µM | 3.46 | > 100 | – | –
